Experimental data as given in patent US6998403B2, “Benzoindoline compounds” (Les Laboratoires Servier, priority 2003, dated 2006).
Marks after values point to notes of the source that are not given here.

Columns and labels:
[1] = test system: extracellular concentrations of NA, DA and ACh in the frontal cortex; assay: Measurement of neurotransmitters in the frontal cortex of rats (microdialysis, HPLC); type: in vivo, rat; settings: 10.0 mg/kg s.c.; for ACh, percentage area beneath the curve (%AbC ± S.E.M.): acetylcholine in frontal cortex dialysates of conscious rats; for ACh, percentage area beneath the curve (%AbC ± S.E.M.) / DA, percentage area beneath the curve (%AbC ± S.E.M.) / NA, percentage area beneath the curve (%AbC ± S.E.M.): 20 min. to 120 min. after administration; for DA, percentage area beneath the curve (%AbC ± S.E.M.): dopamine in frontal cortex dialysates of conscious rats; for change in extracellular concentration of ACh (in words) / change in extracellular concentration of DA (in words) / change in extracellular concentration of NA (in words): frontal cortex dialysates of conscious rats; for NA, percentage area beneath the curve (%AbC ± S.E.M.): noradrenaline in frontal cortex dialysates of conscious rats
Experimental: Measurement of Neurotransmitters in the Frontal Cortex of Rats
The surgery is performed under pentobarbital-induced anaesthesia (60 mg/kg, i.p.). Male Wistar rats, 200–220 g (Iffa Credo, Arbresle, France), are placed in a Kopf stereotaxic device and a cannula guide (CMAMicrodialyse AB, Stockholm, Sweden) is implanted in the frontal cortex at the coordinates (in mm): anteroposterior: +2.2, lateral: ±0.6, ventral deviation: −0.2. The rats are placed in separate cages and recover from the anaesthesia over 5 days. On the day of the dialysis, a Cuprophan CMA/11 probe (length: 4 mm; ext. dia.: 0.24 mm) is introduced into the guide and perfused at 1 μl/min. with a solution of NaCl: 147.2 mM; KCl: 4 mM; CaCl2: 2.3 mM adjusted to pH 7.3 with a phosphate buffer. Two hours after implantation, samples of dialysate are collected every 20 minutes for 4 hours. Three baseline samples are collected before administration of the drug.
Noradrenaline (NA) and dopamine (DA) are measured as follows: 20 μl of dialysate sample are diluted with 20 μl of mobile phase (NaH2PO4: 75 mM, EDTA: 20 μM, sodium decanesulphonate: 1 mM, methanol: 17.5%, triethylamine: 0.01%, pH: 5.70) and 33 μl are analysed by HPLC using, for separation, an inverse-phase column (Hypersil C 18, 150×4.6 mm; particle size 5 μm) thermostatically controlled at 43° C. and, for quantification, a coulometric detector (ESA5014, Coulochem II, ESA, Chelmsford, USA). The potential of the first electrode is −90 mV (reduction) and that of the second +280 mV (oxidation). The mobile phase flow rate is 2 ml/min. The sensitivity limit for NA and DA is 0.2 pg.
Acetylcholine (ACh) is measured and quantified in the absence of acetylcholine esterase (AChE) inhibitor 20 μl of dialysate sample are collected in 10 μl of 0.01% acetic acid. 20 μl aliquots are analysed by HPLC. The mobile phase is composed of Na2HPO4: 50 mM and ProClin: 0.5% (BAS, Congleton, UK), pH 8.2. The stationary phase is composed of a cation-exchange column (Sepstik, 530×1.0 mm, particle size 10 μm, BAS), a pre-column (choline oxidase/catalase enzymatic reactor, 55×1 mm, BAS) and a post-column (choline oxidase/AChE enzymatic reactor, 50×1 mm, BAS). The system is maintained at 35° C. Quantification is carried out by means of an amperometric detector (LC-4B, BAS). A layer of peroxidase-redox polymer is deposited on the vitreous carbon working electrode (MF2098, BAS). The potential of that electrode is +100 mV relative to the Ag/AgCl reference electrode. The mobile phase flow rate is 0.14 ml/min. The sensitivity limit for ACh is 0.1 pg.
The levels of NA, DA and ACh are expressed as the percentage area beneath the curve (% AbC) ±S.E.M. of times 20 min. to 120 min. after administration of the drug. The effects of the compound of Example 1 are compared (ANOVA) with those obtained in animals treated with the solvent or with 6-chloro-5-fluoro-N-[4-methoxy-3-(4-methyl-1-piperazinyl)phenyl]-1-indoline-carboxamide.

5-HT2C receptors = molecular target: T1, 5-HT2C receptors (Homo sapiens, UniProt P28335); assay: Determination of the affinity for 5-HT2C receptors (competition with [3H]-mesulergine); type: binding; settings: 22° C., pH=7.7, IC50 converted into pKi
T1 sequence (P28335 33-458): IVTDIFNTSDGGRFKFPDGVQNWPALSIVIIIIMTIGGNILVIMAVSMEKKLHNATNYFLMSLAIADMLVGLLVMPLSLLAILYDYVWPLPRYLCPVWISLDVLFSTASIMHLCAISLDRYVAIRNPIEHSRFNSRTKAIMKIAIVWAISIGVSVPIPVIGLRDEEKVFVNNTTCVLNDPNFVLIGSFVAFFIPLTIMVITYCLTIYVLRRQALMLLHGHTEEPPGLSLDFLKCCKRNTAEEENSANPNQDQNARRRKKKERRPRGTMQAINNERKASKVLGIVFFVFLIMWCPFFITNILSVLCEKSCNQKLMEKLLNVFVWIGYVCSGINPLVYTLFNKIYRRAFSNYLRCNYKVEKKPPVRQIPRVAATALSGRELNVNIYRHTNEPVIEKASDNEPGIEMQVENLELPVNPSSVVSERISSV
Experimental: The non-specific fraction is defined in the presence of 1 μM mianserin, the latter also being the reference product for each experiment. At the end of the incubation period, the medium is filtered through GF/B-Unifilter filters pre-treated with PEI (0.1%), followed by washing three times with the incubation buffer. The radioactivity retained on the filters is determined by liquid scintillation counting. The binding isotherms are analysed by non-linear regression in order to determine the IC50 values. They are converted into pKi (where Ki is the dissociation constant).

SMILES	ACh, percentage area beneath the curve (%AbC ± S.E.M.) [1]	DA, percentage area beneath the curve (%AbC ± S.E.M.) [1]	change in extracellular concentration of ACh (in words) [1]	change in extracellular concentration of DA (in words) [1]	change in extracellular concentration of NA (in words) [1]	NA, percentage area beneath the curve (%AbC ± S.E.M.) [1]	Ki (5-HT2C receptors) [nM]
COc1ccc(NC(=O)N2CCc3c2ccc2ccccc32)cc1N1CCN(C)CC1.Cl [Example 1, N-[4-Methoxy-3-(4-methyl-1-piperazinyl)phenyl]-1,2-dihydro-3H-benzo[e]indole-3-carboxamide Hydrochloride]	+107.7 ± 13.5^a,b %AbC	+52.9 ± 6.6^a %AbC	substantial increase	substantial increase	substantial increase	+105.4 ± 7.3^a,b %AbC	6.31
COc1ccc(NC(=O)N2CCc3cc(F)c(Cl)cc32)cc1N1CCN(C)CC1 [Example 11 of application EP-1170288, 6-chloro-5-fluoro-N-[4-methoxy-3-(4-methyl-1-piperazinyl)phenyl]-1-indolinecarboxamide]	+15.1 ± 12.3 %AbC	+19.5 ± 4.9 %AbC	no change	very modest increase	very modest increase	+39.8 ± 6.7 %AbC	39.8
